For the assay, the target named is T1, T. cruzi CYP51 (Trypanosoma cruzi, UniProt Q7Z1V1).
T1 construct: had the first 21 residues upstream of K22 replaced with the fragment MAKKKKK; His6 (C); made in house
T1 sequence (Q7Z1V1 15-481, looked up, natural form): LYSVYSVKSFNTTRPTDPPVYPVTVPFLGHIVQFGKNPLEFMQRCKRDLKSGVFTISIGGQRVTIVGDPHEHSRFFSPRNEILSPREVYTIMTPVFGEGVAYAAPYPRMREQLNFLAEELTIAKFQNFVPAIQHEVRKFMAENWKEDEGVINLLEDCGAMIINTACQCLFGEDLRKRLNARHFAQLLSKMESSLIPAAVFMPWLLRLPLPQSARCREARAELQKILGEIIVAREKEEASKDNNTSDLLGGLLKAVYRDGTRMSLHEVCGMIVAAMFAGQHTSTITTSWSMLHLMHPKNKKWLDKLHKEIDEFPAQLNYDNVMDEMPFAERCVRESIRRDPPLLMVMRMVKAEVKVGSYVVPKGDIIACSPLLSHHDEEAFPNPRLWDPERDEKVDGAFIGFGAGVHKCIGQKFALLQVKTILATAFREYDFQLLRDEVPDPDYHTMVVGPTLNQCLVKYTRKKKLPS
Kind of assay: HTS spectral-mode binding screen, type II difference spectra scored 0-5. The following applies: spectral mode, four serial dilutions 2 µM to 12.5 µM, 2 µM CYP51.
Turning to `O=C(NCc1ccncc1)C(Sc1ccccc1)c1ccccc1` (stereo not drawn) [Compound 93], the HTS binding score stood at 4.

`C=CCn1c(=O)c(C(=O)NCc2ccncc2)c(O)c2ccccc21` [Compound 94] showed an HTS binding score of 4.

The compound `O=C(NCc1cccnc1)c1cc2c(=O)oc3ccccc3c2s1` [Compound 95] gave an HTS binding score of 5.

`COC(=O)c1sccc1NC(=O)CSCCc1ccncc1` [Compound 96] showed an HTS binding score of 4.

`CCc1nc(SCc2cccnc2)c(C#N)c(C(F)(F)F)c1C` [Compound 97] registered an HTS binding score of 5.

As to `O=c1c2cnn(-c3ccc(Cl)cc3)c2ncn1Cc1cccnc1` [Compound 98], the HTS binding score is recorded as 5.

`Nc1cc(NC(=O)c2cccc(Cl)c2)cc(Oc2cccnc2)c1` [Compound 100] yielded an HTS binding score of 4.

For the compound `O=C(CSCc1c(Cl)cccc1Cl)NCc1cccnc1` [Compound 102], the HTS binding score is on record as 4.

Consider `O=C(NCc1cccnc1)c1ccc(COc2ccccc2Cl)o1` [Compound 103], for which the HTS binding score amounted to 4.

`CCOC(=O)C1=C(C)N(C)C(C)=C(C(=O)OCC)C1c1ccncc1` [Compound 104] gave an HTS binding score of 5.

In turn, `CC(C)(C)Nc1c(-c2ccncc2)nc2ccc(Br)cn12` [Compound 105] gave an HTS binding score of 4.

For the compound `COc1ccc(C(=O)C(OC(=O)c2ccncc2)c2ccccc2)cc1` (stereo not drawn) [Compound 106], the HTS binding score is given as 4.

`O=C(c1ccc(Cl)cc1)C(Oc1ccc(Cl)cc1)n1cncn1` (stereo not drawn) [Compound 107]: the HTS binding score is given as 5.

In turn, `COc1cc(OC)cc(C(=O)Nc2ccc(Cc3ccncc3)cc2)c1` [Compound 108] registered an HTS binding score of 4.

Compound `Cc1nnc(NCc2cccnc2)c2c1nnn2Cc1ccc(F)cc1` [Compound 109] displayed an HTS binding score of 5.

In the case of `Cc1ccc(S(=O)(=O)NCCCOC(=O)Nc2ccncc2)cc1` [Compound 110], the HTS binding score is given as 5.

In the case of `Cc1ccc(NC(=O)C23CC4CC(C2)CC(n2cncn2)(C4)C3)c(C)c1` [Compound 111], the HTS binding score is listed as 5.

`Cc1ccc(Cl)cc1-n1ncc2c(NCc3cccnc3)ncnc21` [Compound 112]: the HTS binding score is 4.

In turn, `Cc1ccccc1CSCc1ccc(C(=O)NCc2cccnc2)o1` [Compound 113] returned an HTS binding score of 4.

`CC1(C)CC(=O)C2=C(C1)c1c(ccc3ccccc13)NC2c1cccnc1` (stereo not drawn) [Compound 114]: the HTS binding score worked out at 5.

Consider `C/C(=N\OC(=O)c1c(-c2ccccc2Cl)noc1C)c1ccncc1` [Compound 115], for which the HTS binding score is 5.

`O=C(/C(=C/c1ccc(F)cc1)n1cncn1)c1ccc(Cl)cc1Cl` [Compound 116] yielded an HTS binding score of 4.

`c1cc(-c2nnn(CCOCCn3nnc(-c4ccncc4)n3)n2)ccn1` [Compound 117] gave an HTS binding score of 4.

As to `CCc1cc2c(cc3c(=O)n(CC(=O)NCc4cccnc4)ncn32)s1` [Compound 118], the HTS binding score came out at 4.

The compound `c1ccc(-c2cc(NCCCn3ccnc3)n3c(n2)nc2ccccc23)cc1` [Compound 119] showed an HTS binding score of 4.

`COc1cccc(CNCc2cccnc2)c1OCc1ccc(Cl)cc1` [Compound 120] registered an HTS binding score of 4.

Compound `O=S(=O)(c1ccc(-c2csc(-c3cccnc3)n2)cc1)N1CCCC1` [Compound 121] registered an HTS binding score of 4.

`COc1ccc(-c2nc3n(n2)C(c2cccnc2)C2=C(O)CCCC2=N3)cc1` (stereo not drawn) [Compound 122] returned an HTS binding score of 5.

Compound `Cc1ccc(Sc2c(C(=O)NCc3cccnc3)[nH]c3ccccc23)cc1` [Compound 123] came in with an HTS binding score of 4.

As for `COCc1cc(C)nc2c1C(=O)NC(c1cccnc1)N2Cc1ccccc1` (stereo not drawn) [Compound 124], the HTS binding score turned out to be 4.

On to `O=C(Nc1ccc(F)cc1)c1ccc2c(c1)C(=O)N(Cc1cccnc1)C2=O` [Compound 125], for which the HTS binding score came out at 4.

Regarding `O=C(NCCCn1ccnc1)C1CC(c2cccc(Br)c2)=NO1` (stereo not drawn) [Compound 126], the HTS binding score was determined as 4.

`Cc1sc2nc(SCC(=O)NCCCn3ccnc3)nc(O)c2c1C` [Compound 127] came in with an HTS binding score of 4.

Consider `OC1=C2C(=Nc3nc(-c4cccnc4)nn3C2c2ccc(Cl)cc2)CCC1` (stereo not drawn) [Compound 128], for which the HTS binding score came out at 4.

`CC1=C(C(=O)OC2CCCC2)C(c2ccncc2)C2=C(O)CC(C)(C)CC2=N1` (stereo not drawn) [Compound 129] came in with an HTS binding score of 4.

In turn, `O=C1C2(c3ccccc3)CN3CC1(c1ccccc1)CN(C2)C3c1cccnc1` (stereo not drawn) [Compound 130] displayed an HTS binding score of 4.

The compound `O=C1C(c2ccncc2)N(CCC2=CCCCC2)C(=O)CN1C1CCCCC1` (stereo not drawn) [Compound 131] showed an HTS binding score of 4.

`COc1ccc(CNc2nc3ccccc3c3nc(-c4ccncc4)nn23)cc1` [Compound 132]: the HTS binding score is listed as 5.

As for `COc1ccc(-c2nc(CSCC(=O)NCc3cccnc3)c(C)o2)cc1` [Compound 133], the HTS binding score worked out at 4.

Compound `Cn1c(SCc2nc(-c3ccc(Cl)cc3)no2)nnc1-c1ccncc1` [Compound 134] returned an HTS binding score of 5.

`O=C(Nc1ccncc1)c1ccc(NS(=O)(=O)c2cccc(Cl)c2)cc1` [Compound 135]: the HTS binding score is 4.

`CCO/C(O)=C1/C(C)=NC2=C(C(=O)CC(c3ccccc3)C2)C1c1cccnc1` (stereo not drawn) [Compound 136] returned an HTS binding score of 4.

Compound `COc1ccc(-c2cc(C(F)(F)F)nc(NCc3cccnc3)n2)cc1OC` [Compound 137] returned an HTS binding score of 4.

For `O=P(Nc1cccnc1)(Oc1ccccc1Cl)Oc1ccccc1Cl` [Compound 138], the HTS binding score came to 5.

`O=C(CN(Cc1ccccc1)S(=O)(=O)c1ccccc1)NCc1ccncc1` [Compound 139] returned an HTS binding score of 5.

As for `Cc1n[nH]c(C)c1CCc1nc2c3ccccc3nc(NCc3cccnc3)n2n1` [Compound 140], the HTS binding score is on record as 5.

In turn, `O=C(CCCCCN1C(=O)c2cccc3cccc(c23)C1=O)NCc1cccnc1` [Compound 141] displayed an HTS binding score of 4.

The compound `O=S(=O)(Nc1ccc(Cc2ccncc2)cc1)c1ccc(Br)cc1` [Compound 142] yielded an HTS binding score of 4.

`O=C(NCc1cccnc1)c1cc2nc(-c3ccco3)cc(C(F)(F)Cl)n2n1` [Compound 143] gave an HTS binding score of 5.

Compound `CC(C)c1nnc(N2C(=O)c3oc4ccccc4c(=O)c3C2c2cccnc2)s1` (stereo not drawn) [Compound 144] returned an HTS binding score of 4.

Compound `O=C(Cn1nc(-c2ccc(Cl)cc2)c2ccccc2c1=O)NCc1cccnc1` [Compound 145] showed an HTS binding score of 4.

In turn, `CCOC(=O)c1cc(-c2ccc(C)cc2)n(CCC(=O)NCc2cccnc2)c1C` [Compound 146] returned an HTS binding score of 5.

In the case of `COc1ccc(S(=O)(=O)NC(C)c2ccc(-n3ccnc3)cc2)c2ccccc12` (stereo not drawn) [Compound 147], the HTS binding score came out at 4.

Take `CC(NC(=O)C12CC3CC(C1)CC(n1cncn1)(C3)C2)C12CC3CC(CC(C3)C1)C2` (stereo not drawn) [Compound 148]: the HTS binding score is 4.

`O=S(=O)(NCc1csc(-c2cccnc2)n1)c1ccc(Br)cc1` [Compound 149] registered an HTS binding score of 5.

Turning to `O=C(CSc1nc(-c2cccs2)cc(C(F)(F)F)n1)NCc1ccncc1` [Compound 150], the HTS binding score stood at 4.

On to `O=C(c1ccc(Cl)cc1Cl)C(c1cccnc1)C(O)C(Cl)(Cl)Cl` (stereo not drawn) [Compound 151], for which the HTS binding score is recorded as 5.

`Cc1ccc2nc(NC(=O)C3CCN(S(=O)(=O)c4cccnc4)CC3)sc2c1` [Compound 152] came in with an HTS binding score of 4.

`Cc1coc(NC(=O)c2sc3nc(-c4ccncc4)cc(C(F)(F)F)c3c2N)n1` [Compound 153]: the HTS binding score stood at 4.

For `COc1ccc(CNc2nc(-c3cccnc3)nn2S(=O)(=O)c2ccccc2)cc1` [Compound 154], the HTS binding score amounted to 4.

In turn, `O=C(CSc1nc(-c2ccc(F)cc2)cc(C(F)(F)F)n1)NCc1ccncc1` [Compound 155] registered an HTS binding score of 4.

In turn, `O=C(CCCSc1nc(-c2ccco2)cc(C(F)(F)F)n1)NCc1ccncc1` [Compound 156] came in with an HTS binding score of 4.

`Cc1c(C(=O)N2CCCCC2c2cccnc2)sc2nc3n(c(=O)c12)CCCCC3` (stereo not drawn) [Compound 157] gave an HTS binding score of 4.

As for `N#CC1=C(N)Oc2nc(SCc3ccc(Cl)cc3)nc(N)c2C1c1cccnc1` (stereo not drawn) [Compound 158], the HTS binding score was determined as 4.

The compound `CC1=C(C(=O)Nc2ccc(F)cc2F)C(c2cccnc2)C2=C(O)CC(C)(C)CC2=N1` (stereo not drawn) [Compound 159] showed an HTS binding score of 4.

In the case of `CC1=C(C(=O)Nc2cccnc2)C(c2ccc(Cl)cc2)n2nc(CCCO)nc2N1` (stereo not drawn) [Compound 160], the HTS binding score is 4.

Consider `Cn1c(=O)c2c(nc(NCc3cccnc3)n2Cc2cccc3ccccc23)n(C)c1=O` [Compound 161], for which the HTS binding score was determined as 4.

In turn, `COc1cc(OC)cc(-c2nc3n(n2)C(c2ccncc2)C2=C(O)CC(C)(C)CC2=N3)c1` (stereo not drawn) [Compound 162] showed an HTS binding score of 4.

In the case of `COc1cc(OC)cc(-c2cc3nc(C)c(CCC(=O)Nc4cccnc4)c(C)n3n2)c1` [Compound 163], the HTS binding score came to 4.

Take `CC1Cc2cc(C(=O)C3=C(O)C(=O)N(Cc4cccnc4)C3c3cccs3)ccc2O1` (stereo not drawn) [Compound 164]: the HTS binding score turned out to be 4.

Consider `CCOC(=O)c1c(C)n(-c2ccc(C)cc2)c2ccc(OCC(O)Cn3ccnc3)cc12` (stereo not drawn) [Compound 165], for which the HTS binding score was found to be 4.

On to `COc1ccc(NC(=O)C2=C(C)Nc3nc(-c4ccccc4)nn3C2c2ccncc2)cc1` (stereo not drawn) [Compound 166], for which the HTS binding score worked out at 5.

Consider `O=C(c1ccncc1)N(c1ccc2oc3c(c2c1)CCCC3)S(=O)(=O)c1cccs1` [Compound 167], for which the HTS binding score is on record as 4.

In turn, `Cc1sc(NC(=O)c2ccco2)c(C(c2cccnc2)N2CCN(CCO)CC2)c1C` (stereo not drawn) [Compound 168] came in with an HTS binding score of 4.

Take `COc1cccc(C2C(C(=O)Nc3cccnc3)=C(C)Nc3nc(-c4cccs4)nn32)c1` (stereo not drawn) [Compound 169]: the HTS binding score is given as 4.

The record behind these values is paper PMC3409115, “Diverse Inhibitor Chemotypes Targeting Trypanosoma cruzi CYP51” (PLoS Neglected Tropical Diseases, 2012).
